Data set [1] deals with T1, Sigma intracellular receptor 2 (Rattus norvegicus, UniProt Q5U3Y7).
T1 sequence (Q5U3Y7 whole entry): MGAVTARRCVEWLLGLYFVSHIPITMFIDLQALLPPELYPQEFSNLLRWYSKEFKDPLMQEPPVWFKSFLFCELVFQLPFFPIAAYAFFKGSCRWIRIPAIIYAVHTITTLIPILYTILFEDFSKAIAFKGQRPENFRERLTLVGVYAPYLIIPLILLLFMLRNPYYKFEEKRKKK
The experiment in a line: Displacement of [3H]-DTG from S2R in rat liver membranes after 120 mins by scintillation counting assay. Type of data set: cell membranes, Membrane.

Data set [2] in a line: Selectivity ratio of Ki for S2R in rat liver membranes to Ki for S1R in guinea pig brain cortex membranes. Format: cell membranes.
Data set [3] concerns the target Acetylcholinesterase (Electrophorus electricus, UniProt O42275). Put plainly: Inhibition of electric eel AChE using acetylthiocholine iodide as substrate preincubated for 5 mins followed by substrate addition and measured after 2 mins by Ellman's method.
Data set [4] is described as follows: Displacement of [3H]-ifenprodil from GluN1a/GluN2B (unknown origin) expressed in mouse L(tk-) cell membranes after 120 mins by scintillation counting analysis. The arrangement: species or system Homo sapiens. For orientation: Displacement assays read how much labelled ligand stays bound in the presence of the test substance.
Data set [5] can be described thus: Antioxidant activity assessed as DPPH free radical scavenging after 20 mins by UV-Vis spectrophotometric analysis. Type of data set: functional. Background: Loss of DPPH colour is used to gauge radical scavenging.
Data set [6] in a line: Antioxidant activity assessed as DPPH free radical scavenging at 465 uM after 20 mins by UV-Vis spectrophotometric analysis relative to control. Format: functional.
In data set [7] the test system is SH-SY5Y. Put plainly: Cytotoxicity against human SH-SY5Y cells assessed as reduction in cell viability after 24 hrs by MTS assay. Format: cell-based. The conditions noted are these: for IC50: Homo sapiens, SH-SY5Y; for Activity: human, sh-sy5y.
The subject of data set [8] is SH-SY5Y. Put plainly: Cytotoxicity against human SH-SY5Y cells assessed as reduction in cell viability after 48 hrs by MTS assay. Type of data set: cell-based. The conditions noted are these: for IC50: Homo sapiens, SH-SY5Y; for Activity: human, sh-sy5y. On the technique in general: Tetrazolium dyes change colour on reduction, which living cells bring about.
The test system of data set [9] is SH-SY5Y. Put plainly: Neuroprotection against H2O2-induced oxidative stress in human SH-SY5Y cells assessed as reduction in ROS generation at 10 uM preincubated for 3 hrs followed by DCFDA addition for 45 mins and subsequent co-treatment with compound and H2O2 for 24 hrs by fluorescence assay relative to control. The arrangement: scale not given: the % may be the effect or the level left. Format: functional.

A short description of data set [10]: Neurotrophic activity in Sprague-Dawley rat embryo DRG neuron assessed as increase in neurite length at 2.5 uM after 24 hrs relative to control. Format: functional.
Data set [11] can be described thus: Neurotoxicity in Sprague-Dawley rat embryo DRG neuron at 2.5 to 5 uM after 24 to 48 hrs. Type of data set: toxicity.
Data set [12] in a line: Neurotoxicity in Sprague-Dawley rat embryo DRG neuron at 10 uM after 24 hrs. Type of data set: toxicity.
The nature of data set [13]: Neurotoxicity in Sprague-Dawley rat embryo DRG neuron at 10 uM after 48 hrs. Type of data set: toxicity.
Data set [14] is described as follows: in vitro. The conditions noted are these: human.
Description: Cytotoxicity against human SH-SY5Y cells assessed as cell viability at 10 uM after 24 hrs by MTS assay relative to control
Data set [15] in a line: in vitro. The note with it: human. This is another data set of the same source.
The nature of data set [16]: in vitro. The conditions noted are these: human. This is another data set of the same source.
Description: Cytotoxicity against human SH-SY5Y cells assessed as cell viability at 50 uM after 24 hrs by MTS assay relative to control
The nature of data set [17]: in vitro. The note with it: human. The source holds these as a separate data set.
Description: Cytotoxicity against human SH-SY5Y cells assessed as cell viability at 10 uM after 48 hrs by MTS assay relative to control
The nature of data set [18]: in vitro. The conditions noted are these: human. This is another data set of the same source.
Data set [19] can be described thus: in vitro. The conditions noted are these: human. This is another data set of the same source.
Description: Cytotoxicity against human SH-SY5Y cells assessed as cell viability at 50 uM after 48 hrs by MTS assay relative to control
For data set [20], the target named is T2, Sigma non-opioid intracellular receptor 1 (Cavia porcellus, UniProt Q60492). The arrangement: species or system Hartley.
Description: Displacement of [3H]DTG from S1R in P2 fraction of Hartley guinea pig whole brain after 90 mins by liquid scintillation counting method
Data set [21] is described as follows: Neurotrophic activity in Sprague-Dawley rat embryo DRG neuron assessed as increase in neurite length at 2.5 to 5 uM after 24 to 48 hrs relative to control. Format: functional.
Data set [22] concerns the target T2, Sigma non-opioid intracellular receptor 1. Put plainly: Displacement of [3H](+)-pentazocine from S1R in guinea pig brain cortex membranes after 120 mins by scintillation counting assay. Type of data set: cell membranes.

One may read the Ki as a measure of affinity in units of concentration, obtained from inhibition or displacement. For orientation: IC50 means the concentration that inhibits the measured activity by half. The viability is a read-out of living cells in per cent, often relative to untreated cells.

The source made the active and inactive calls. The calls are words filed in the database; no cut-off is given here.

T2 sequence (Q60492 whole entry): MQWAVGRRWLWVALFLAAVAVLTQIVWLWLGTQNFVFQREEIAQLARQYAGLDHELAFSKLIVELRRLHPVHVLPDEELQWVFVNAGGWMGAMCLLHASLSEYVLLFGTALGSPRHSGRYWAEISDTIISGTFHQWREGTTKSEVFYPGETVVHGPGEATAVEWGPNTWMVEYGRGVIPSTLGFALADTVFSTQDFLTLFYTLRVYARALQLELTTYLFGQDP
Acetylcholinesterase, sequence (O42275 whole entry): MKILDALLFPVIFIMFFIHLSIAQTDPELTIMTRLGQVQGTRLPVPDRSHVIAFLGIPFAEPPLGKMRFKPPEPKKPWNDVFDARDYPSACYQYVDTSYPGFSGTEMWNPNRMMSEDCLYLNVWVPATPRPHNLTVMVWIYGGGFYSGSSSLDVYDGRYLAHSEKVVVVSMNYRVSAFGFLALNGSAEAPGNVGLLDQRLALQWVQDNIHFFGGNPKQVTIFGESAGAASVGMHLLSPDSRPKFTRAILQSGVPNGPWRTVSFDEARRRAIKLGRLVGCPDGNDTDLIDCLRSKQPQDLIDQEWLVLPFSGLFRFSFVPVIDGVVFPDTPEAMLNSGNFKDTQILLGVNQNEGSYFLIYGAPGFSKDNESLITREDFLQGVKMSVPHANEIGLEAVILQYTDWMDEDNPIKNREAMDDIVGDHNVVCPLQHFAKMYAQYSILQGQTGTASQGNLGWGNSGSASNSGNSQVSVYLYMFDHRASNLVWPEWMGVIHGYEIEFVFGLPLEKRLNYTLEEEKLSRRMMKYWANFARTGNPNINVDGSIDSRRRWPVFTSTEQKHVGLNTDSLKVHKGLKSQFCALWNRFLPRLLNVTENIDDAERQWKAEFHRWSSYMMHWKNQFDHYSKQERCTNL

Consider `Cl.O=C(CN1CCC(Cc2ccccc2)CC1)c1ccc2ccccc2c1`, for which the Ki in [1] was found to be 802 nM; in [4] it was 139 nM. The Ratio Ki in data set [2] turned out to be 30. Further, the IC50 worked out at 9130 nM in data set [3], 86800 nM in data set [5], 52000 nM in [7] and 57000 nM in data set [8]. Also, the Activity in data set [6] is 65.7%; in data set [7], “Dose-dependent effect”; in data set [8], “Dose-dependent effect”; in [9] it was “<=43%”; in data set [10], 15%; in data set [11], “Non-Toxic”. In addition, the Activity result is “Toxic” in [12] and “Non-Toxic” in data set [13]. Besides, in [14] (SH-SY5Y cells), the viability at 24 h, 10 µM was found to be 107%. In addition, in data set [15] (SH-SY5Y cells), the viability at 24 h, 25 µM is 104%. The viability at 24 h, 50 µM in data set [16] (SH-SY5Y cells) was 81.3%. For the same compound, the viability at 48 h, 10 µM in data set [17] (SH-SY5Y cells) came to 89.5%. For the same compound, in [18] (SH-SY5Y cells), the viability at 48 h, 25 µM turned out to be 77.6%. In [19] (SH-SY5Y cells), the viability at 48 h, 50 µM was determined as 48.4%.

For the compound `COc1cc2c(cc1OC)C(=O)C(CC1CCN(Cc3ccccc3)CC1)C2` (configuration not stated) [DONEPEZIL], the Activity in [6] amounted to 4.4%. For the same compound, the result in data set [9] was inactive. The compound further showed a Ki in data set [20] of 14.6 nM. The viability at 24 h, 10 µM in data set [14] (sh-sy5y) is 100%. Besides, in data set [15] (sh-sy5y), the viability at 24 h, 25 µM is 99.3%. Also, the viability at 24 h, 50 µM in data set [16] (sh-sy5y) was found to be 94.7%. In addition, the viability at 48 h, 10 µM in data set [17] (sh-sy5y) is 94.3%. The viability at 48 h, 25 µM in [18] (sh-sy5y) came to 80.4%. The viability at 48 h, 50 µM in data set [19] (sh-sy5y) was 64.4%.

Regarding `Cl.O=C(CCN1CCCCC1)c1ccc(-c2ccccc2)cc1`, the Ki in data set [1] is 462 nM; in [4], above 1000 nM. The Ratio Ki in data set [2] is 30.8. Moreover, the IC50 stood at 13100 nM in [3], 37000 nM in [7] and 22000 nM in [8]. Besides, the Activity in data set [6] was 15.5%; in data set [7], “Dose-dependent effect”; in data set [8], “Dose-dependent effect”; in data set [9], 18%; in [21], 20%; in data set [11], “Non-Toxic”. Moreover, the values for the Activity entry in data set [12] and in data set [13] were “Toxic” and “Non-Toxic”, respectively. For the same compound, in data set [14] (SH-SY5Y cells), the viability at 24 h, 10 µM is 104%. Further, the viability at 24 h, 25 µM in data set [15] (SH-SY5Y cells) was 95.4%. Further, the viability at 24 h, 50 µM in data set [16] (SH-SY5Y cells) came out at 64%. Also, in [17] (SH-SY5Y cells), the viability at 48 h, 10 µM was found to be 95.9%. The viability at 48 h, 25 µM in data set [18] (SH-SY5Y cells) came to 49.3%. Further, the viability at 48 h, 50 µM in [19] (SH-SY5Y cells) turned out to be 44.7%.

For the compound `COc1cccc(C(=O)CCCN2CCC(Cc3ccccc3)CC2)c1.Cl`, the Ki in [22] worked out at 17 nM; in [1] it was 43 nM; in data set [4], 49 nM. Further, in [2], the Ratio Ki was determined as 2.5. The IC50 in data set [3] worked out at 7640 nM. The Activity in data set [6] is 32%; in data set [7], “Dose-dependent effect”; in [8], “Dose-dependent effect”. For the same compound, the viability at 24 h, 10 µM in data set [14] (SH-SY5Y cells) was found to be 100%. The viability at 24 h, 25 µM in data set [15] (SH-SY5Y cells) came to 100%. Besides, the viability at 24 h, 50 µM in [16] (SH-SY5Y cells) was 98%. Further, the viability at 48 h, 10 µM in [17] (SH-SY5Y cells) worked out at 94.8%. Moreover, the viability at 48 h, 25 µM in data set [18] (SH-SY5Y cells) came out at 85.6%. For the same compound, the viability at 48 h, 50 µM in data set [19] (SH-SY5Y cells) stood at 65%.

Take `COc1cc(/C=C/C(=O)CC(=O)/C=C/c2ccc(O)c(OC)c2)ccc1O` [CURCUMIN]: in data set [5], the IC50 is 13500 nM. Also, the Activity in data set [6] came out at 71.3%; in data set [9], 0%. Besides, the viability at 24 h, 10 µM in [14] (SH-SY5Y cells) worked out at 100%. Also, in data set [15] (SH-SY5Y cells), the viability at 24 h, 25 µM is 76.5%. For the same compound, the viability at 24 h, 50 µM in data set [16] (SH-SY5Y cells) came to 71.5%. Moreover, the viability at 48 h, 10 µM in [17] (SH-SY5Y cells) worked out at 100%. The viability at 48 h, 25 µM in data set [18] (SH-SY5Y cells) came to 58.7%. Moreover, the viability at 48 h, 50 µM in data set [19] (SH-SY5Y cells) worked out at 59%.

Consider `C[C@H](CCN1CCCCC1)c1ccc(-c2ccccc2)cc1`, for which the Ki was 45 nM in data set [1] and above 1000 nM in data set [4]. Also, the Ratio Ki in data set [2] was found to be 25. Further, the outcome in data set [9] was inactive. Besides, the viability at 24 h, 10 µM in data set [14] (SH-SY5Y cells) worked out at 100%. In data set [15] (SH-SY5Y cells), the viability at 24 h, 25 µM stood at 100%. Further, the viability at 24 h, 50 µM in [16] (SH-SY5Y cells) worked out at 86%. In data set [17] (SH-SY5Y cells), the viability at 48 h, 10 µM worked out at 84%. In addition, the viability at 48 h, 25 µM in data set [18] (SH-SY5Y cells) was found to be 77.1%. The viability at 48 h, 50 µM in data set [19] (SH-SY5Y cells) came out at 57.3%.

Take `COc1ccc(C(=O)CN2CCC(Cc3ccccc3)CC2)cc1.Cl`: the values for the Ki in [22], in data set [1] and in data set [4] were 27 nM, 2000 nM and 16 nM, respectively. In data set [2], the Ratio Ki was 74. In addition, the IC50 in [5] was determined as 147000 nM. For the same compound, the Activity in [6] is 65.6%; in [7], “Dose-dependent effect”; in [8] it was “Dose-dependent effect”. Further, the viability at 24 h, 10 µM in data set [14] (SH-SY5Y cells) was 103%. The viability at 24 h, 25 µM in data set [15] (SH-SY5Y cells) was found to be 98.4%. In addition, in [16] (SH-SY5Y cells), the viability at 24 h, 50 µM stood at 87%. In addition, the viability at 48 h, 10 µM in data set [17] (SH-SY5Y cells) came to 85.5%. In data set [18] (SH-SY5Y cells), the viability at 48 h, 25 µM worked out at 69.3%. Moreover, in [19] (SH-SY5Y cells), the viability at 48 h, 50 µM was 52.5%.

In the case of `COc1ccc(C(=O)CCN2CCC(Cc3ccccc3)CC2)cc1.Cl`, the Ki in [22] was determined as 11 nM; in data set [1], 2400 nM; in data set [4], 198 nM. Moreover, the Ratio Ki in [2] came to 218. In [3], this compound yielded an IC50 of 22000 nM. Further, the Activity in [6] is 2.8%; in data set [7] it was “Dose-dependent effect”; in [8] it was “Dose-dependent effect”. Besides, the outcome in [9] was inactive. For the same compound, the viability at 24 h, 10 µM in data set [14] (SH-SY5Y cells) is 99.9%. The viability at 24 h, 25 µM in data set [15] (SH-SY5Y cells) came out at 63.9%. Also, the viability at 24 h, 50 µM in data set [16] (SH-SY5Y cells) was found to be 56.5%. For the same compound, in data set [17] (SH-SY5Y cells), the viability at 48 h, 10 µM came out at 97.4%. In addition, in data set [18] (SH-SY5Y cells), the viability at 48 h, 25 µM came to 50.2%. Further, the viability at 48 h, 50 µM in data set [19] (SH-SY5Y cells) turned out to be 44.7%.

Values taken from ChEMBL document CHEMBL4265931, “Identification of dual Sigma1 receptor modulators/acetylcholinesterase inhibitors with antioxidant and neurotrophic properties, as neuroprotective agents” (Eur J Med Chem, 2018).
